{"source": "patent US20250009763A1", "about": "“METHODS FOR EXTENDING LIFESPAN AND/OR DELAYING AGING” (priority 2023, published 2025)", "system": "yeast BY4741 (WT)", "assay": "Micromanipulation assay of replicative lifespan (RLS)", "type": "cell-based, Saccharomyces cerevisiae", "details": "25 μM; FIG. 1F", "protocol": "The micromanipulation of the yeast cells was carried out as follows. Prior to analysis, yeast strains BY4741 (WT), BY4741-fob1Δ (fob1Δ), or BY4741-sir2Δfob1Δ (sir2Δfob1Δ) were plated onto fresh solid YEPD medium and grown at 30° C. for two days. Then, individual colonies were picked and grown in solid YEPD media containing: (1) dimethyl sulfoxide (DMSO), (2) 10, 25, or 50 μM PN6, or (3) 25 μM β-sitosterol at 30° C. overnight, and a small number of yeast cells were then plated onto a fresh YEPD plate for lifespan analysis. After overnight growth on the lifespan plates, the cells were arrayed on the plate using a micromanipulator and allowed to grow for approximately 3 hours. Virgin daughter cells were selected and subjected to lifespan analysis. In the lifespan experiments, the plates were incubated at 30° C. during the day and stored at 4° C. overnight. Each experiment consisted of more than 50 mother cells and was independently repeated three times.", "data": [{"compound": "CC[C@H](CC[C@@H](C)[C@H]1CC[C@H]2[C@@H]3CC=C4C[C@@H](O)CC[C@]4(C)[C@H]3CC[C@]12C)C(C)C", "note": "[3-sitosterol, β-sitosterol]", "values": [{"measurement": "extension of the RLS of yeast", "value": "not seen"}]}]}
